Source: US20240391965A1, “STAPLED ANTIMICROBIAL PEPTIDES (STAMPS) AND USES THEREOF” (Lytica Therapeutics, Inc., priority 2021, published 2024)
Values after ≈ are worked out from the molar mass of the structure shown. Starred links: 1 amine or outer side, 2 acyl side, 3 side chain; linkers in the order of their positions; H or OH if unused. Positions of bridges follow the written chain, without caps; N, C: chain ends. Residues, ends and D or L forms follow the SMILES beside them. 2,2'Bipyridine(5,5'-diCH2) = c1cc(-c2ccc(C[*:2])cn2)ncc1C[*:1]; Biphenyl(4,4'-CH2)2 = c1cc(-c2ccc(C[*:2])cc2)ccc1C[*:1]; mXylylene = c1cc(C[*:1])cc(C[*:2])c1; pXylylene = c1cc(C[*:2])ccc1C[*:1]

Experiment: 48 hours cytotoxicity assay (CellTiter-Glo), liver toxicity
Type: cell-based, human
Conditions: not given
Description: In some embodiments, a peptide provided herein has hepatic toxicity that is at least 10% (e.g., at least 15%, at least 20%, at least 25%, at least 30%, at least 35%, at least 40%, at least 45%, at least 50%, at least 55%, at least 60%, at least 65%, at least 65%, at least 70%, at least 75%, at least 80%, at least 85%, at least 90%, at least 95%, at least 99%) lower than the hepatic toxicity of the reference. The hepatic toxicity of a peptide can be measured in vitro using a human liver cells (e.g., HepG2) toxicity assay.
Cell culture: RPTEC were maintained in MEM media supplemented with growth factors. HEPG2 cell line was maintained in Eagle's Minimum Essential Medium (EMEM) supplemented with fetal bovine serum to a final concentration of 10%.
48 hours cytotoxicity assay: Cells were plated in a 96-well format, and after 4 hour incubation to allow attachment, serial dilutions of StAMPs from a 5 mg/mL water stock, or vehicle, were then added to the cells in a final volume of 100 μl. After incubating at 37° C. for 48 hours, 100 μl of CellTiter-Glo® reagent was added to the cells, and the plates were incubated 10 minutes at room temperature. Luminescence was then measured on a microplate reader.
Renal toxicity was measured after 90 minutes of incubation, while liver toxicity was measured after 48 hours of incubation with StAMPs. N/A=not tested.

| Structure (SMILES) | IC50 |
| --- | --- |
| CC[C@H](C)[C@H](NC(=O)[C@H](CC(C)C)NC(=O)[C@H](CC(C)C)NC(=O)[C@H](CC(N)=O)NC(=O)[C@H](CCCCN)NC(=O)[C@@H](NC(=O)[C@H](CCCCN)NC(=O)[C@H](CCCCN)NC(=O)[C@@H]1CSCc2ccc(cc2)-c2ccc(cc2)CSC[C@H](N)C(=O)N[C@@H]([C@@H](C)CC)C(=O)N[C@@H](Cc2ccccc2)C(=O)N[C@@H](CO)C(=O)N[C@@H](CCCCN)C(=O)N[C@@H](CC(C)C)C(=O)N[C@@H](C)C(=O)N1)[C@@H](C)CC)C(=O)N[C@@H](CO)C(=O)NCC(=O)N[C@@H](CC(C)C)C(=O)N[C@@H](CCCCN)C(=O)NCC(N)=O [compound 51] (H-CIFSKLACKKIKNLLISGLKG-NH2; linker 1-8 via Biphenyl(4,4'-CH2)2; N-terminus assumed) | 102 µg/mL (≈ 41.5 µM) |
| CC[C@H](C)[C@H](NC(=O)CN)C(=O)N[C@@H](Cc1ccccc1)C(=O)N[C@@H](CO)C(=O)N[C@@H](CCCCN)C(=O)N[C@@H](CC(C)C)C(=O)N[C@@H](C)C(=O)NCC(=O)N[C@@H](CCCCN)C(=O)N[C@@H](CCCCN)C(=O)N[C@H]1CSCc2ccc(cc2)-c2ccc(cc2)CSC[C@@H](C(=O)N[C@@H](CC(C)C)C(=O)N[C@@H](CCCCN)C(=O)NCC(N)=O)NC(=O)[C@H](CO)NC(=O)[C@H]([C@@H](C)CC)NC(=O)[C@H](CC(C)C)NC(=O)[C@H](CC(C)C)NC(=O)[C@H](CC(N)=O)NC(=O)[C@H](CCCCN)NC1=O [compound 76] (H-GIFSKLAGKKCKNLLISCLKG-NH2; linker 11-18 via Biphenyl(4,4'-CH2)2; N-terminus assumed) | 23 µg/mL (≈ 9.59 µM) |
| CC[C@H](C)[C@H](NC(=O)CN)C(=O)N[C@@H](Cc1ccccc1)C(=O)N[C@H]1CSCc2ccc(cc2)-c2ccc(cc2)CSC[C@@H](C(=O)N[C@@H](CCCCN)C(=O)N[C@@H](CC(N)=O)C(=O)N[C@@H](CC(C)C)C(=O)N[C@@H](CC(C)C)C(=O)N[C@H](C(=O)N[C@@H](CO)C(=O)NCC(=O)N[C@@H](CC(C)C)C(=O)N[C@@H](CCCCN)C(=O)NCC(N)=O)[C@@H](C)CC)NC(=O)[C@H](CCCCN)NC(=O)[C@H](CCCCN)NC(=O)CNC(=O)[C@H](C)NC(=O)[C@H](CC(C)C)NC(=O)[C@H](CCCCN)NC1=O [compound 59] (H-GIFCKLAGKKCKNLLISGLKG-NH2; linker 4-11 via Biphenyl(4,4'-CH2)2; N-terminus assumed) | 23 µg/mL (≈ 9.71 µM) |
| CC[C@H](C)[C@H](NC(=O)[C@H](CC(C)C)NC(=O)[C@H](CC(C)C)NC(=O)[C@H](CC(N)=O)NC(=O)[C@H](CCCCN)NC(=O)[C@@H](NC(=O)[C@H](CCCCN)NC(=O)[C@H](CCCCN)NC(=O)CNC(=O)[C@H](C)NC(=O)[C@@H]1CSCc2cccc(c2)CSC[C@H](NC(=O)CN)C(=O)N[C@@H](Cc2ccccc2)C(=O)N[C@@H](CO)C(=O)N[C@@H](CCCCN)C(=O)N1)[C@@H](C)CC)C(=O)N[C@@H](CO)C(=O)NCC(=O)N[C@@H](CC(C)C)C(=O)N[C@@H](CCCCN)C(=O)NCC(N)=O [compound 46] (H-GCFSKCAGKKIKNLLISGLKG-NH2; linker 2-6 via mXylylene; N-terminus assumed) | 201 µg/mL (≈ 88.7 µM) |
| CC[C@H](C)[C@H](NC(=O)CN)C(=O)N[C@@H](Cc1ccccc1)C(=O)N[C@@H](CO)C(=O)N[C@@H](CCCCN)C(=O)N[C@@H](CC(C)C)C(=O)N[C@@H](C)C(=O)N[C@H]1CSCc2ccc(cc2)-c2ccc(cc2)CSC[C@@H](C(=O)N[C@H](C(=O)N[C@@H](CO)C(=O)NCC(=O)N[C@@H](CC(C)C)C(=O)N[C@@H](CCCCN)C(=O)NCC(N)=O)[C@@H](C)CC)NC(=O)[C@H](CC(C)C)NC(=O)[C@H](CC(N)=O)NC(=O)[C@H](CCCCN)NC(=O)[C@H]([C@@H](C)CC)NC(=O)[C@H](CCCCN)NC(=O)[C@H](CCCCN)NC1=O [compound 68] (H-GIFSKLACKKIKNLCISGLKG-NH2; linker 8-15 via Biphenyl(4,4'-CH2)2; N-terminus assumed) | 8 µg/mL (≈ 3.33 µM) |
| CC[C@H](C)[C@H](NC(=O)CN)C(=O)N[C@@H](Cc1ccccc1)C(=O)N[C@@H](CO)C(=O)N[C@@H](CCCCN)C(=O)N[C@@H](CC(C)C)C(=O)N[C@@H](C)C(=O)NCC(=O)N[C@@H](CCCCN)C(=O)N[C@@H](CCCCN)C(=O)N[C@H](C(=O)N[C@@H](CCCCN)C(=O)N[C@@H](CC(N)=O)C(=O)N[C@H]1CSCc2ccc(cc2)-c2ccc(cc2)CSC[C@@H](C(N)=O)NC(=O)[C@H](CCCCN)NC(=O)[C@H](CC(C)C)NC(=O)CNC(=O)[C@H](CO)NC(=O)[C@H]([C@@H](C)CC)NC(=O)[C@H](CC(C)C)NC1=O)[C@@H](C)CC [compound 86] (H-GIFSKLAGKKIKNCLISGLKC-NH2; linker 14-21 via Biphenyl(4,4'-CH2)2; N-terminus assumed) | 9 µg/mL (≈ 3.75 µM) |
| CC[C@H](C)[C@H](NC(=O)CN)C(=O)N[C@@H](Cc1ccccc1)C(=O)N[C@@H](CO)C(=O)N[C@H]1CSCc2ccc(cc2)-c2ccc(cc2)CSC[C@@H](C(=O)N[C@@H](CC(N)=O)C(=O)N[C@@H](CC(C)C)C(=O)N[C@@H](CC(C)C)C(=O)N[C@H](C(=O)N[C@@H](CO)C(=O)NCC(=O)N[C@@H](CC(C)C)C(=O)N[C@@H](CCCCN)C(=O)NCC(N)=O)[C@@H](C)CC)NC(=O)[C@H]([C@@H](C)CC)NC(=O)[C@H](CCCCN)NC(=O)[C@H](CCCCN)NC(=O)CNC(=O)[C@H](C)NC(=O)[C@H](CC(C)C)NC1=O [compound 61] (H-GIFSCLAGKKICNLLISGLKG-NH2; linker 5-12 via Biphenyl(4,4'-CH2)2; N-terminus assumed) | > 200 µg/mL |
| CC[C@H](C)[C@H](NC(=O)[C@H](CC(C)C)NC(=O)[C@H](CC(C)C)NC(=O)[C@H](CC(N)=O)NC(=O)[C@H](CCCCN)NC(=O)[C@@H](NC(=O)[C@H](CCCCN)NC(=O)[C@H](CCCCN)NC(=O)CNC(=O)[C@H](C)NC(=O)[C@@H]1CSCc2ccc(cc2)CSC[C@H](NC(=O)CN)C(=O)N[C@@H](Cc2ccccc2)C(=O)N[C@@H](CO)C(=O)N[C@@H](CCCCN)C(=O)N1)[C@@H](C)CC)C(=O)N[C@@H](CO)C(=O)NCC(=O)N[C@@H](CC(C)C)C(=O)N[C@@H](CCCCN)C(=O)NCC(N)=O [compound 47] (H-GCFSKCAGKKIKNLLISGLKG-NH2; linker 2-6 via pXylylene; N-terminus assumed) | 402 µg/mL (≈ 177 µM) |
| CC[C@H](C)[C@H](NC(=O)CN)C(=O)N[C@@H](Cc1ccccc1)C(=O)N[C@@H](CO)C(=O)N[C@@H](CCCCN)C(=O)N[C@@H](CC(C)C)C(=O)N[C@@H](C)C(=O)NCC(=O)N[C@H]1CSCc2ccc(cc2)-c2ccc(cc2)CSC[C@@H](C(=O)N[C@@H](CO)C(=O)NCC(=O)N[C@@H](CC(C)C)C(=O)N[C@@H](CCCCN)C(=O)NCC(N)=O)NC(=O)[C@H](CC(C)C)NC(=O)[C@H](CC(C)C)NC(=O)[C@H](CC(N)=O)NC(=O)[C@H](CCCCN)NC(=O)[C@H]([C@@H](C)CC)NC(=O)[C@H](CCCCN)NC1=O [compound 70] (H-GIFSKLAGCKIKNLLCSGLKG-NH2; linker 9-16 via Biphenyl(4,4'-CH2)2; N-terminus assumed) | 23 µg/mL (≈ 9.88 µM) |
| CC[C@H](C)[C@H](NC(=O)CN)C(=O)N[C@@H](Cc1ccccc1)C(=O)N[C@@H](CO)C(=O)N[C@@H](CCCCN)C(=O)N[C@@H](CC(C)C)C(=O)N[C@@H](C)C(=O)NCC(=O)N[C@@H](CCCCN)C(=O)N[C@@H](CCCCN)C(=O)N[C@H](C(=O)N[C@H]1CSCc2ccc(cc2)-c2ccc(cc2)CSC[C@@H](C(=O)N[C@@H](CCCCN)C(=O)NCC(N)=O)NC(=O)CNC(=O)[C@H](CO)NC(=O)[C@H]([C@@H](C)CC)NC(=O)[C@H](CC(C)C)NC(=O)[C@H](CC(C)C)NC(=O)[C@H](CC(N)=O)NC1=O)[C@@H](C)CC [compound 79] (H-GIFSKLAGKKICNLLISGCKG-NH2; linker 12-19 via Biphenyl(4,4'-CH2)2; N-terminus assumed) | 50 µg/mL (≈ 21.5 µM) |

Same assay, conditions: 48 hours of incubation, CellTiter-Glo; read-out: Inhibitory Concentration at 50% Cytotoxicity (IC50) Human Liver Cells (HepG2)

| Structure (SMILES) | IC50 |
| --- | --- |
| CC[C@H](C)[C@H](NC(=O)CN)C(=O)N[C@@H](Cc1ccccc1)C(=O)N[C@@H](CO)C(=O)N[C@H]1CSCc2ccc(nc2)-c2ccc(cn2)CSC[C@@H](C(=O)N[C@@H](CC(N)=O)C(=O)N[C@@H](CC(C)C)C(=O)N[C@@H](CC(C)C)C(=O)N[C@H](C(=O)N[C@@H](CO)C(=O)NCC(=O)N[C@@H](CC(C)C)C(=O)N[C@@H](CCCCN)C(=O)NCC(N)=O)[C@@H](C)CC)NC(=O)[C@H]([C@@H](C)CC)NC(=O)[C@H](CCCCN)NC(=O)[C@H](CCCCN)NC(=O)CNC(=O)[C@H](C)NC(=O)[C@H](CC(C)C)NC1=O [compound 60] (H-GIFSCLAGKKICNLLISGLKG-NH2; linker 5-12 via 2,2'Bipyridine(5,5'-diCH2)) | 29 µg/mL (≈ 12.5 µM) |
| CC[C@H](C)[C@H](NC(=O)CN)C(=O)N[C@@H](Cc1ccccc1)C(=O)N[C@@H](CO)C(=O)N[C@@H](CCCCN)C(=O)N[C@H]1CSCc2ccc(nc2)-c2ccc(cn2)CSC[C@@H](C(=O)N[C@@H](CC(C)C)C(=O)N[C@@H](CC(C)C)C(=O)N[C@H](C(=O)N[C@@H](CO)C(=O)NCC(=O)N[C@@H](CC(C)C)C(=O)N[C@@H](CCCCN)C(=O)NCC(N)=O)[C@@H](C)CC)NC(=O)[C@H](CCCCN)NC(=O)[C@H]([C@@H](C)CC)NC(=O)[C@H](CCCCN)NC(=O)[C@H](CCCCN)NC(=O)CNC(=O)[C@H](C)NC1=O [compound 63] (H-GIFSKCAGKKIKCLLISGLKG-NH2; linker 6-13 via 2,2'Bipyridine(5,5'-diCH2)) | 44 µg/mL (≈ 18.8 µM) |
